Results taken from patent publication US20230391778A1, “INDOLIN-2-ONE OR PYRROLO -PYRIDIN -2 -ONE DERIVATIVES” (Hoffmann-La Roche Inc., priority 2014, published 2023).
Counter-ions that a name gives are not always drawn.

target: T1, mouse ENT-1 transporter (Mus musculus, UniProt Q9JIM1); experiment: Measure of adenosine transport activity (ENT1 adenosine uptake inhibition); type: cell-based; conditions: stable cells expressing mouse ENT-1, [2,8-3H]-adenosine 6 nM, 20 min
T1 construct: expressed in transfected cells
T1 sequence (Q9JIM1 1-460): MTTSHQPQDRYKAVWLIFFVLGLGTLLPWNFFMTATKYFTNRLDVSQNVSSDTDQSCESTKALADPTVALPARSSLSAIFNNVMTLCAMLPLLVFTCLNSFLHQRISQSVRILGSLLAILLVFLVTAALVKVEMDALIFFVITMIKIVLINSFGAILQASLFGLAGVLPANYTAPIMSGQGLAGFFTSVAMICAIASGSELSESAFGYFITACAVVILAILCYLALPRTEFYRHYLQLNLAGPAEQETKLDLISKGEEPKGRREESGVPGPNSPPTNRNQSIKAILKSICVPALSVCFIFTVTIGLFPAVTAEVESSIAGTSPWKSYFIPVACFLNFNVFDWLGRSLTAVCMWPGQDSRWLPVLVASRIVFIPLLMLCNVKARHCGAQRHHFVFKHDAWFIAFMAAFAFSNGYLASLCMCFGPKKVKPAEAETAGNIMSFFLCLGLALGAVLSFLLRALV
Description: To measure adenosine transport activity of ENT-1 mammalian cells, stable cells expressing the mouse ENT-1 transporter were plated on day 1 in 96-well culture plates at the density of 60,000 cells/well, in complete DMEM/F12 medium supplemented with glutamax, 10% FBS and 10 μg/ml puromycin. On day 2, the medium was aspirated and the cells were washed twice with uptake buffer (10 mM Hepes-Tris, pH 7.4 containing 150 mM NaCl, 1 mM CaCl2), 2.5 mM KCl, 2.5 mM MgSO4, 10 mM D-glucose) (UB). For inhibition experiments, cells were then incubated at RT with various concentrations of compounds with 1% DMSO final. Non-specific uptake was defined in the presence of 10 μM S-(4-Nitrobenzyl)-6-thioinosine (NBTI, Sigma Cat #N2255).
The plates were then incubated for 20 min with gentle shaking and the reaction was stopped by aspiration of the mixture and washing (three times) with ice-cold UB. The cells were lysed by the addition of scintillation liquid, shaken 3 hours and the radioactivity in the cells was estimated using a microplates scintillation counter (TopCount NXT, Packard).

Structure (SMILES)	IC50
Cc1cc(N2C(=O)C(C)(C)c3ccc(-c4cnc(C)nc4)cc32)cc(C)n1 [Example 66, 1-(2,6-Dimethylpyridin-4-yl)-3,3-dimethyl-6-(2-methylpyrimidin-5-yl)indolin-2-one]	1.14 µM
Cc1cc(C)nc(N2C(=O)C(C)(C)c3ccc(-c4cnc(C)nc4)cc32)n1 [Example 67, 1-(4,6-Dimethylpyrimidin-2-yl)-3,3-dimethyl-6-(2-methylpyrimidin-5-yl)indolin-2-one]	5.63 µM
Cc1cc(N2C(=O)C(C)(C)c3ccc(-c4cnc(C)nc4)cc32)nc(C)n1 [Example 68, 1-(2,6-Dimethylpyrimidin-4-yl)-3,3-dimethyl-6-(2-methylpyrimidin-5-yl)indolin-2-one]	0.502 µM
Cc1ncc(-c2ccc3c(c2)N(c2cc(C)c(C)cn2)C(=O)C3(C)C)cn1 [Example 69, 1-(4,5-Dimethylpyridin-2-yl)-3,3-dimethyl-6-(2-methylpyrimidin-5-yl)indolin-2-one]	1.28 µM
Cc1ncc(-c2ccc3c(c2)N(c2cnc(C)c(C)c2)C(=O)C3(C)C)cn1 [Example 75, 1-(5,6-dimethylpyridin-3-yl)-3,3-dimethyl-6-(2-methylpyrimidin-5-yl)indolin-2-one]	0.827 µM
Cc1ncc(-c2ccc3c(c2)N(c2cccnn2)C(=O)C3(C)C)cn1 [Example 76, 3,3-dimethyl-6-(2-methylpyrimidin-5-yl)-1-(pyridazin-3-yl)indolin-2-one]	2.1 µM
Cc1ncc(-c2ccc3c(c2)N(c2ncccn2)C(=O)C3(C)C)cn1 [Example 79, 3,3-dimethyl-6-(2-methylpyrimidin-5-yl)-1-(pyrimidin-2-yl)indolin-2-one]	3.88 µM
Cc1ncc(-c2ccc3c(c2)N(c2cnn(C)c2)C(=O)C3(C)C)cn1 [Example 80, 3,3-dimethyl-1-(1-methyl-1H-pyrazol-4-yl)-6-(2-methylpyrimidin-5-yl)indolin-2-one]	1.5 µM
Cc1ncc(-c2ccc3c(c2)N(c2cn[nH]c2)C(=O)C3(C)C)cn1 [Example 83, 3,3-dimethyl-6-(2-methylpyrimidin-5-yl)-1-(1H-pyrazol-4-yl)indolin-2-one]	4.66 µM
Cc1ncc(-c2ccc3c(c2)N(c2cncnc2C)C(=O)C3(C)C)cn1 [Example 84, 3,3-dimethyl-6-(2-methylpyrimidin-5-yl)-1-(4-methylpyrimidin-5-yl)indolin-2-one]	15.6 µM
Cc1ncc(-c2ccc3c(c2)N(c2c[nH]cn2)C(=O)C3(C)C)cn1 [Example 85, 1-(1H-imidazol-4-yl)-3,3-dimethyl-6-(2-methylpyrimidin-5-yl)indolin-2-one]	5.24 µM
Cc1cc(N2C(=O)C(C)(C)c3ccc(-c4cnc(C)nc4)cc32)[nH]n1 [Example 86, 3,3-dimethyl-1-(3-methyl-1H-pyrazol-5-yl)-6-(2-methylpyrimidin-5-yl)indolin-2-one hydrochloride]	0.423 µM
Cc1ncc(-c2ccc3c(c2)N(c2cn(C)nn2)C(=O)C3(C)C)cn1 [Example 87, 3,3-dimethyl-1-(1-methyl-1H-1,2,3-triazol-4-yl)-6-(2-methylpyrimidin-5-yl)indolin-2-one]	2.07 µM
Cc1ncc(-c2ccc3c(c2)N(c2ncc(C)[nH]2)C(=O)C3(C)C)cn1 [Example 88, 3,3-dimethyl-1-(4-methyl-1H-imidazol-2-yl)-6-(2-methylpyrimidin-5-yl)indolin-2-one]	7.66 µM
Cc1ncc(-c2ccc3c(c2)N(c2ncc[nH]2)C(=O)C3(C)C)cn1 [Example 92, 1-(1H-imidazol-2-yl)-3,3-dimethyl-6-(2-methylpyrimidin-5-yl)indolin-2-one]	1.29 µM
CCn1ccc(N2C(=O)C(C)(C)c3ccc(-c4cnc(C)nc4)cc32)n1 [Example 94, 1-(1-ethyl-1H-pyrazol-3-yl)-3,3-dimethyl-6-(2-methylpyrimidin-5-yl)indolin-2-one]	1.16 µM
Cc1ncc(-c2ccc3c(c2)N(c2cnc(C#N)cn2)C(=O)C3(C)C)cn1 [Example 96, 5-(3,3-dimethyl-6-(2-methylpyrimidin-5-yl)-2-oxoindolin-1-yl)pyrazine-2-carbonitrile]	0.154 µM
Cc1ncc(-c2ccc3c(c2)N(c2cnccc2C)C(=O)C3(C)C)cn1 [Example 99, 3,3-dimethyl-1-(4-methylpyridin-3-yl)-6-(2-methylpyrimidin-5-yl)indolin-2-one]	4.33 µM

Structure (SMILES)	IC50
Cc1ncc(-c2ccc3c(c2)N(c2cnc(CO)nc2)C(=O)C3(C)C)cn1 [Example 102, 1-(2-(hydroxymethyl)pyrimidin-5-yl)-3,3-dimethyl-6-(2-methylpyrimidin-5-yl)indolin-2-one]	10.2 µM
Cc1ncc(-c2ccc3c(c2)N(c2cnc(CN)nc2)C(=O)C3(C)C)cn1 [Example 103, 1-[2-(aminomethyl)pyrimidin-5-yl]-3,3-dimethyl-6-(2-methylpyrimidin-5-yl)indol-2-one]	18.4 µM
Cc1ncc(-c2ccc3c(c2)N(c2nnn(C)n2)C(=O)C3(C)C)cn1 [Example 105, 3,3-dimethyl-1-(2-methyl-2H-tetrazol-5-yl)-6-(2-methylpyrimidin-5-yl)indolin-2-one]	7 µM
Cc1ncc(-c2ccc3c(c2)N(c2ccc(C)[n+]([O-])n2)C(=O)C3(C)C)c[n+]1[O-] [Example 107, 3-(3,3-dimethyl-6-(2-methyl-1-oxidopyrimidin-5-yl)-2-oxoindolin-1-yl)-6-methylpyridazine 1-oxide]	2.19 µM
Cc1ncc(-c2ccc3c(c2)N(c2cnc(CF)nc2)C(=O)C3(C)C)cn1 [Example 108, 1-(2-(fluoromethyl)pyrimidin-5-yl)-3,3-dimethyl-6-(2-methylpyrimidin-5-yl)indolin-2-one]	1.9 µM
Cc1ncc(-c2ccc3c(c2)N(c2cnc(Cl)nc2)C(=O)C3(C)C)cn1 [Example 114, 1-(2-chloropyrimidin-5-yl)-3,3-dimethyl-6-(2-methylpyrimidin-5-yl)indolin-2-one]	0.456 µM
Cc1ncc(-c2ccc3c(c2)N(c2cc(Cl)nc(Cl)c2)C(=O)C3(C)C)cn1 [Example 115, 1-(2,6-dichloropyridin-4-yl)-3,3-dimethyl-6-(2-methylpyrimidin-5-yl)indolin-2-one]	0.144 µM
Cc1ncc(-c2ccc3c(c2)N(c2cnc(Cl)cn2)C(=O)C3(C)C)cn1 [Example 117, 1-(5-chloropyrazin-2-yl)-3,3-dimethyl-6-(2-methylpyrimidin-5-yl)indol-2-one]	0.035 µM
Cc1cc(N2C(=O)C(C)(C)c3ccc(-c4cnc(C)nc4)cc32)cc(Cl)n1 [Example 119, 1-(2-chloro-6-methylpyridin-4-yl)-3,3-dimethyl-6-(2-methylpyrimidin-5-yl)indolin-2-one]	0.335 µM
Cc1ncc(-c2ccc3c(c2)N(c2cc(Cl)nc(C)n2)C(=O)C3(C)C)cn1 [Example 121, 1-(6-chloro-2-methylpyrimidin-4-yl)-3,3-dimethyl-6-(2-methylpyrimidin-5-yl)indolin-2-one]	0.669 µM
Cc1cnnc(N2C(=O)C(C)(C)c3ccc(-c4cnc(C)nc4)cc32)c1 [Example 122, 3,3-dimethyl-1-(5-methylpyridazin-3-yl)-6-(2-methylpyrimidin-5-yl)indolin-2-one]	0.626 µM
Cc1ncc(-c2ccc3c(c2)N(c2nc(C)ns2)C(=O)C3(C)C)cn1 [Example 123, 3,3-dimethyl-1-(3-methyl-1,2,4-thiadiazol-5-yl)-6-(2-methylpyrimidin-5-yl)indolin-2-one]	0.694 µM
Cc1ncc(-c2ccc3c(c2)N(c2nccc(Cl)n2)C(=O)C3(C)C)cn1 [Example 128, 1-(4-chloropyrimidin-2-yl)-3,3-dimethyl-6-(2-methylpyrimidin-5-yl)indolin-2-one]	0.851 µM
COCc1ccc(N2C(=O)C(C)(C)c3ccc(-c4cnc(C)nc4)cc32)cn1 [Example 129, 1-(6-(methoxymethyl)pyridin-3-yl)-3,3-dimethyl-6-(2-methylpyrimidin-5-yl)indolin-2-one]	0.887 µM
Cc1ncc(-c2ccc3c(c2)N(c2cc(C4CC4)cnn2)C(=O)C3(C)C)cn1 [Example 130, 1-(5-cyclopropylpyridazin-3-yl)-3,3-dimethyl-6-(2-methylpyrimidin-5-yl)indolin-2-one]	2.37 µM
Cc1cnc(-c2ccc3c(c2)N(c2cncc(C)n2)C(=O)C3(C)C)cn1 [Example 132, 3,3-dimethyl-6-(5-methylpyrazin-2-yl)-1-(6-methylpyrazin-2-yl)indolin-2-one]	2.45 µM
Cc1cnc(-c2ccc3c(c2)N(c2cnc(C)nc2)C(=O)C3(C)C)cn1 [Example 133, 3,3-dimethyl-6-(5-methylpyrazin-2-yl)-1-(2-methylpyrimidin-5-yl)indolin-2-one]	4.79 µM
Cc1ncc(-c2ccc3c(c2)N(c2ccc(C4CC4)nn2)C(=O)C3(C)C)cn1 [Example 134, 1-(6-cyclopropylpyridazin-3-yl)-3,3-dimethyl-6-(2-methylpyrimidin-5-yl)indolin-2-one]	0.036 µM
